# Columns and labels:
# gastric acid secretion = test: Gastric acid secretion in the pylorus ligated rat (antisecretory activity); assay type: in vivo, rat (male Sprague-Dawley); settings: 4 hours
# Method: GASTRIC ACID SECRETION IN THE PYLORUS LIGATED RAT
# Male Sprague-Dawley rats weighing 150±5 g fasting since 48 hours were used. Pylorus ligation was performed for 4 hours. The products under examination were administered by the oral route immediately after the ligation.
# [1] = tested on: carbachole-induced salivation; test: Carbachole salivation in the rat; assay type: in vivo, rat (male Sprague-Dawley); settings: 62.5 mg/kg p.o., one hour before carbachole 1 mg/kg i.p.
# Method: CARBACHOLE SALIVATION IN THE RAT
# The method cited by R. Turner: "Parasympatholytic Agents" in R. Turner "Screening Methods in Pharmacology" pag. […] Academic Press. […] Male Sprague-Dawley rats, mean weight 150±5 g, fasting since 24 hours, were used.
# The salivation was induced by the intraperitoneal administration of 1 mg/kg of carbachole. The products under exam were administered orally one hour before the cholinergic stimulus.
# in vivo = settings: mouse, oral, Swiss mice, 14 days observation
# Method: The acute toxicity was determined by administering by oral route the substances under exam to Swiss mice, average weight 20±2 g. The observation period was 14 days. 10 Animals were used for each assayed dose.
smiles,measurement,setting,value
"C[N+]1(C)CC[N+](C)(CC(=O)N2c3ccccc3C(=O)Nc3cccnc32)CC1 [Compound 2, 11-[2-(4-Methylpiperazin-1-yl)acetyl]-5,11-dihydro-6H-pyrido[2,3-b][1,4]benzodiazepin-6-one N^1,4 bisiodomethylate]",% Antisecretory activity,gastric acid secretion; 6.25 mg/kg p.o.,10.3%
same,% Antisecretory activity,gastric acid secretion; 12.5 mg/kg p.o.,15.1%
same,% Antisecretory activity,gastric acid secretion; 25 mg/kg p.o.,20.4%
same,Salivation by carbachol- protection %,[1],30%
same,LD50 at 336 h,in vivo,> 500 mg/kg
CC(C)(C)C(=O)OC[N+]1(C)CCC(C(=O)N2c3ccccc3C(=O)Nc3cccnc32)CC1 (stereo not shown) [Compound 15],% Antisecretory activity,gastric acid secretion; 6.25 mg/kg p.o.,9.6%
same,% Antisecretory activity,gastric acid secretion; 12.5 mg/kg p.o.,27.7%
same,% Antisecretory activity,gastric acid secretion; 25 mg/kg p.o.,41.8%
same,Salivation by carbachol- protection %,[1],10%
same,LD50 at 336 h,in vivo,> 500 mg/kg
"C[N+](C)(C)CC(=O)N1c2ccccc2C(=O)Nc2cccnc21 [Compound 3, 11-(2-Dimethylaminoacetyl)-5,11-dihydro-6H-pyrido-[2,3-b][1,4]-benzodiazepin-6-one iodomethylate]",% Antisecretory activity,gastric acid secretion; 6.25 mg/kg p.o.,6.0%
same,% Antisecretory activity,gastric acid secretion; 12.5 mg/kg p.o.,14.3%
same,% Antisecretory activity,gastric acid secretion; 25 mg/kg p.o.,35.9%
same,Salivation by carbachol- protection %,[1],0%
same,LD50 at 336 h,in vivo,< 500 mg/kg
C[N+]1(CCC(=O)N2c3ccccc3C(=O)Nc3cccnc32)CCCCCC1 [Compound 13],% Antisecretory activity,gastric acid secretion; 6.25 mg/kg p.o.,19.2%
same,% Antisecretory activity,gastric acid secretion; 12.5 mg/kg p.o.,47.5%
same,% Antisecretory activity,gastric acid secretion; 25 mg/kg p.o.,69.6%
same,Salivation by carbachol- protection %,[1],30%
same,LD50 at 336 h,in vivo,> 500 mg/kg
"C[N+]1(CC(=O)N2c3ccccc3C(=O)Nc3cccnc32)CCCCC1 [Compound 4, 11-[2-(Piperidin-1-yl)acetyl]-5,11-dihydro-6H-pyrido[2,3-b][1,4]benzodiazepin-6-one iodomethylate]",% Antisecretory activity,gastric acid secretion; 6.25 mg/kg p.o.,22.7%
same,% Antisecretory activity,gastric acid secretion; 12.5 mg/kg p.o.,48.1%
same,% Antisecretory activity,gastric acid secretion; 25 mg/kg p.o.,70.3%
same,Salivation by carbachol- protection %,[1],70%
same,LD50 at 336 h,in vivo,> 500 mg/kg
